EC50 data for 3 compounds are collected here from BindingDB's records for patent US11116760 (Gilead Sciences, 2021).

In this assay the target is T1, Integrin alpha-4/beta-7 (Homo sapiens, UniProt P13612+P26010).
T1 sequence (P13612 whole entry): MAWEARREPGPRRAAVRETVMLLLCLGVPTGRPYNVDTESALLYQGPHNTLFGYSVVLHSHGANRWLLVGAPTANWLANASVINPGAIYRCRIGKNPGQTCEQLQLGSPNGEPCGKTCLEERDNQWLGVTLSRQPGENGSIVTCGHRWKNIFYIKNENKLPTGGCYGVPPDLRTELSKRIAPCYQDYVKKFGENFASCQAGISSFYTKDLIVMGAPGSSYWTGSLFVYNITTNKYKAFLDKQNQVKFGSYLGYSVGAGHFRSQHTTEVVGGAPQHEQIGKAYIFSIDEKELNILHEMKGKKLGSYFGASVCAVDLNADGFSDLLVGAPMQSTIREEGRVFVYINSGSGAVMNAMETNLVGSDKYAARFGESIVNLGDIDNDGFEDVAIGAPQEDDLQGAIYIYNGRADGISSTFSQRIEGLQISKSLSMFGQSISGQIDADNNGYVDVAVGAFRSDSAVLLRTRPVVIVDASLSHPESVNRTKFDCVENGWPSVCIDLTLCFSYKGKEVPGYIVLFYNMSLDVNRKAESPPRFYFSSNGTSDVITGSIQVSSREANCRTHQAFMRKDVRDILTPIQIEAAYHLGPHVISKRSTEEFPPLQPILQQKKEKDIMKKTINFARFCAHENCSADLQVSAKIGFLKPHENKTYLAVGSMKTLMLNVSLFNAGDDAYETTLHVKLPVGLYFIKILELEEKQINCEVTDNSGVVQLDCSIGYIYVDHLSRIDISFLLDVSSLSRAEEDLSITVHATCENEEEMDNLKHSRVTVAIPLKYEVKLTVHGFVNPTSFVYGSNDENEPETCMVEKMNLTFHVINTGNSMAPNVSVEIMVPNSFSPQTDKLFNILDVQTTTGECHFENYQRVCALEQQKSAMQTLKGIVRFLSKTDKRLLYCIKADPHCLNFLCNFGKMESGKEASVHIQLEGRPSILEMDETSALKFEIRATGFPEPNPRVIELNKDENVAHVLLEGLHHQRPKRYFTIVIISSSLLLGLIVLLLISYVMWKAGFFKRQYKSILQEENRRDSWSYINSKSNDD
T1 sequence (P26010 whole entry): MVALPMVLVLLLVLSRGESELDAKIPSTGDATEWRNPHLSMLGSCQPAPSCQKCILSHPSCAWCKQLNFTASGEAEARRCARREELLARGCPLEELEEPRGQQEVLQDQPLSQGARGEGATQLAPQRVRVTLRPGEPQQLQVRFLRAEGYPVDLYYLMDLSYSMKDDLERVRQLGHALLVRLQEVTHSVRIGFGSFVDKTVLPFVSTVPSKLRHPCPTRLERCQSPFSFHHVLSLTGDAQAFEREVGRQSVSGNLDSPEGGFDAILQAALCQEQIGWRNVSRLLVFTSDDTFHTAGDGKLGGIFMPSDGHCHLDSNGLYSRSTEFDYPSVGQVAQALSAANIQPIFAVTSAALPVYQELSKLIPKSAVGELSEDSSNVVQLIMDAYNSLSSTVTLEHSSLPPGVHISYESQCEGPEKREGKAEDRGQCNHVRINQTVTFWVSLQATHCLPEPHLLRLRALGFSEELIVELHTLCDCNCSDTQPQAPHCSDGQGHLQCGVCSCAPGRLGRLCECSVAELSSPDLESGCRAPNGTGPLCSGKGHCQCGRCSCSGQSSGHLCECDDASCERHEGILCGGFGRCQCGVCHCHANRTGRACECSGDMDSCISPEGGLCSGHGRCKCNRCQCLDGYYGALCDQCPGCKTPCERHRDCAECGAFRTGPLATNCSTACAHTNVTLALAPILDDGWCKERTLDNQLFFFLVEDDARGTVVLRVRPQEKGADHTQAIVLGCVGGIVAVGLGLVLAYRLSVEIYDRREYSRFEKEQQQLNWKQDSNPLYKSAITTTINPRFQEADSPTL
The experiment in a line: alpha-4 beta-7 Integrin Cell Capture Assay. The procedure:
The potency of inhibitors in preventing α4β7 integrin interaction with MadCAM-1 was measured by monitoring the capture of α4β7 integrin expressing cells on a recombinant MadCAM-1 extracellular domain-coated plate. 384-Well plates (Corning 3702) were coated with MadCAM-1 extracellular domain by dispensing 20 μL of MAdCAM-1 at 1.0 μg/mL per well and incubating overnight at 4° C. The plates were then washed with PBS and blocked with 3% BSA for 2 hours before being washed again.

`N#Cc1ccc(-c2ccc(C[C@H](NC(=O)c3c(Cl)ccc(F)c3F)C(=O)O)c3cccnc23)c(Cl)c1` [US11116760, Example 17] returned an EC50 of 36.7 nM. This lies in the double-digit nanomolar range. The same measure for `CC1(C)CN(c2cc(F)c(C(=O)N[C@@H](Cc3ccc(-c4ccc(C#N)cc4Cl)c4ncccc34)C(=O)O)c(F)c2)CCO1` [US11116760, Example 213]: 28.6 nM.

`COc1cc(F)c(C(=O)N[C@@H](Cc2ccc(-c3ccc(C#N)cc3Cl)c3ncccc23)C(=O)O)c(F)c1` [US11116760, Example 21] registered an EC50 of 96.6 nM.
